In publication PMC4229100, “A Two-Step Strategy to Enhance Activity of Low Potency Peptides” (PLoS ONE, 2014):
pEC50, pIC50: −log10 of the molar value. Read-outs that look alike come from different tables or passages of the source. Values belong to the compound of their own block, whether it stands above or below them. Ends that are not written are not given here. Peptide text beside a SMILES is read from it. * marks the point of attachment. PEG8 = NCCOCCOCCOCCOCCOCCOCCOCCOCCC(=O)O; Palmitoyl = CCCCCCCCCCCCCCCC(=O)*

Experiments:
CCK2R [1] = molecular target: T1, CCK2R (Homo sapiens, UniProt P32239); experiment: Antagonist inhibition of agonist-induced CCK2R signaling (SRE-luciferase, HEK293); type: cell-based; parameters: expressed in transfected cells; host or cells: HEK293
T1 sequence (P32239 1-447): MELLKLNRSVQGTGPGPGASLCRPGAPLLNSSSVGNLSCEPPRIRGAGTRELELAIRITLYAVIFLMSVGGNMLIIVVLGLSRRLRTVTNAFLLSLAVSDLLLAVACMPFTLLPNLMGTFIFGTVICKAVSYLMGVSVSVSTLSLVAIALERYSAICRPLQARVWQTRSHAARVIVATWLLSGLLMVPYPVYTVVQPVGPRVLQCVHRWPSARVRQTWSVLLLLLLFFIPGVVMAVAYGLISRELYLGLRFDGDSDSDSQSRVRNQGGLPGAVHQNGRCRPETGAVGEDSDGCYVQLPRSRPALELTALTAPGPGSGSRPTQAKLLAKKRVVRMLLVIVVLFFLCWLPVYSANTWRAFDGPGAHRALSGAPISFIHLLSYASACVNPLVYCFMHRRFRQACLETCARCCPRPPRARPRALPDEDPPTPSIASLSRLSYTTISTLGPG
Protocol: Figure 6 YM022 inhibits CCK2R signaling induced by tethered CCK4-Gly, soluble CCK4-Gly, or lipidated CCK4-Gly. A) YM022 blocks tethered CCK4-Gly mediated CCK2R signaling. […] Four hours following transfection, cells were with treated with increasing concentrations of YM022 for 20 hours. […] B) YM022 blocks s-CCK4-Gly-COOH and l-CCK4-Gly-COOH mediated activation of CCK2R. HEK293 cells were transfected as indicated above. Twenty hours after transfection, cells were with treated with increasing concentrations of YM022 together with either 10 µM of l-CCK4-Gly-COOH or s-CCK4-Gly-COOH.

CCK2R [2] = molecular target: T1, CCK2R; experiment: SRE-luciferase reporter agonist assay in HEK293 cells transfected with CCK2R; conditions: for CCK2R mediated signaling (agonist activity, in words): HEK293, SRE-Luc, relative to 10 µM s-CCK4-NH2, MTL coexpressed 24 hours, peptides 4 hours
Protocol: (§1) Human embryonic kidney cells (HEK293) were maintained at 37°C in a humidified 5% CO2 atmosphere and cultured with Dulbecco’s modified Eagle’s medium (Invitrogen, Chicago, IL) containing 10% fetal bovine serum, 100 U/mL penicillin, and 100 µg/mL streptomycin. Cells were seeded into 96-well plates and grown to ∼80% confluence. Cells were transfected for 24 hours using polyethylenimine (Sigma, Atlanta, GA) in serum-free medium [17] with cDNAs encoding, a) tethered ligand (where noted), b) 3 ng of indicated receptor, c) 25 ng of a 5X-SRE-Luc-pest (pGL4.33), a luciferase reporter construct under the control of a serum response element (Promega, Madison, WI), and d) 10 ng of β-galactosidase to control for transfection efficiency.
The CCK2 receptor was cloned as previously reported [18]; the CCK1R cDNA was PCR amplified based on a published sequence [19]. Each receptor cDNA encoding the human sequence was subcloned into pcDNA1.1. […] The nucleotide sequences of all receptor and tethered ligand coding regions were confirmed by automated DNA sequencing and analyzed using Vector NTI software (Invitrogen, Chicago, IL). The expression of membrane tethered Substance P, CCK4, and CCK4-Gly was assessed by ELISA using an antibody directed to the myc epitope tag within the MTL cDNA construct [8].
(§2) Tethered ligand induced signaling was assessed in HEK293 cells 24 hours after transfection. For soluble and lipidated peptides, 20 hours following transfection, cells were stimulated in serum-free medium for an additional 4 hours. […] With tethered ligands, antagonists were added 4 hours after transfection; activity was assessed following an additional 20 hour incubation. Quantification of luciferase and β-galactosidase activities were performed as previously described [6]. Data were analyzed by nonlinear curve fitting using Graph Pad Prism 5.0 software.
HEK293 cells were transiently cotransfected with cDNAs encoding: the designated CCK receptor subtype, a 5X-SRE-Luc-pest reporter construct (pGL4.33), tethered ligand (as indicated) and a β-galactosidase gene to control for transfection efficiency. Tethered ligand activity was measured 24 hours following transfection. To assess activity of soluble and lipidated CCK4-Gly, cells were stimulated for an additional 4 hours with ligand. […] Data represent the mean ± SEM from 3 independent experiments, each performed in triplicate.

CCK1R = molecular target: T2, CCK1R (Homo sapiens, UniProt P32238); experiment: SRE-luciferase reporter agonist assay in HEK293 cells transfected with CCK1R; conditions: HEK293, SRE-Luc; relative to 10 µM s-CCK8-NH2; MTL coexpressed 24 hours, peptides 4 hours
T2 sequence (P32238 1-428): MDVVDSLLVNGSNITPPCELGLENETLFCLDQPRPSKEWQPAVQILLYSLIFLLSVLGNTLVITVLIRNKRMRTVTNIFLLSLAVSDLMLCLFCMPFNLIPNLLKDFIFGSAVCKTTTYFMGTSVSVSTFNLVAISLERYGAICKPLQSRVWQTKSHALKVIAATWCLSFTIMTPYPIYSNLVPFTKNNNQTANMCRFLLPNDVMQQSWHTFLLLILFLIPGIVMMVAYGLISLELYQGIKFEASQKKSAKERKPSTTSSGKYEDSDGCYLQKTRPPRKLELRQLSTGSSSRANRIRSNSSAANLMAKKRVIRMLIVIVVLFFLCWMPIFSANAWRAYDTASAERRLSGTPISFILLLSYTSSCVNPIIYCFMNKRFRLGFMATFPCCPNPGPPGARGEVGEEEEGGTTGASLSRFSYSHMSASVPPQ
Protocol: Human embryonic kidney cells (HEK293) were maintained at 37°C in a humidified 5% CO2 atmosphere and cultured with Dulbecco’s modified Eagle’s medium (Invitrogen, Chicago, IL) containing 10% fetal bovine serum, 100 U/mL penicillin, and 100 µg/mL streptomycin. Cells were seeded into 96-well plates and grown to ∼80% confluence. […]
The CCK2 receptor was cloned as previously reported [18]; the CCK1R cDNA was PCR amplified based on a published sequence [19]. […] The nucleotide sequences of all receptor and tethered ligand coding regions were confirmed by automated DNA sequencing and analyzed using Vector NTI software (Invitrogen, Chicago, IL). The expression of membrane tethered Substance P, CCK4, and CCK4-Gly was assessed by ELISA using an antibody directed to the myc epitope tag within the MTL cDNA construct [8].
(§3) Tethered ligand induced signaling was assessed in HEK293 cells 24 hours after transfection. […] With tethered ligands, antagonists were added 4 hours after transfection; activity was assessed following an additional 20 hour incubation. Quantification of luciferase and β-galactosidase activities were performed as previously described [6]. Data were analyzed by nonlinear curve fitting using Graph Pad Prism 5.0 software. […]

NK1R [3] = molecular target: T3, NK1R (Homo sapiens, UniProt P25103); experiment: cell-based
Protocol: as §1
(§4) The expression of membrane tethered Substance P, CCK4, and CCK4-Gly was assessed by ELISA using an antibody directed to the myc epitope tag within the MTL cDNA construct [8].
as §2
(§5) HEK293 cells were transiently cotransfected for 24 hours with cDNAs encoding: the designated NK receptor subtype, a 5X-SRE-Luc-pest reporter construct (pGL4.33), tethered ligand (for MTL assays, left panels), and a β-galactosidase gene to control for transfection variability. For assessment of SMAL induced signaling, cells were stimulated with ligand for an additional 4 hours. […] Data represent the mean ± SEM from 3 independent experiments, each performed in triplicate.

NK1R [4] = molecular target: T3, NK1R
Protocol: as §1, §4, §2, §5

NK2R = molecular target: T4, NK2R (Homo sapiens, UniProt P21452); experiment: SRE-luciferase reporter agonist assay in HEK293 cells transfected with NK2R; conditions: HEK293, SRE-Luc; relative to 1 µM s-SubP-NH2; MTL coexpressed 24 hours, peptides 4 hours
T4 sequence (P21452 1-398): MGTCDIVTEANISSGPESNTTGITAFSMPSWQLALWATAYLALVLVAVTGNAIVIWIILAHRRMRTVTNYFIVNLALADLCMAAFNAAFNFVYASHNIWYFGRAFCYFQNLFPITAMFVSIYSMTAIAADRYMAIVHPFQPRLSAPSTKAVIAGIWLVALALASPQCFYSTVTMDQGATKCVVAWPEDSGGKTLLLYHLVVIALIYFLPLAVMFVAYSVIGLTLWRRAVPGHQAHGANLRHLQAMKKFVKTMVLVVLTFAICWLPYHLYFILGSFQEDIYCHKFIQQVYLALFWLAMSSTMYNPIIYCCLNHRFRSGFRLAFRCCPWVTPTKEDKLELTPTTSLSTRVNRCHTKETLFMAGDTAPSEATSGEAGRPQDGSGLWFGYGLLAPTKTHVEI
Protocol: as §1, §4, §3

NK3R = molecular target: T5, NK3R (Homo sapiens, UniProt P29371); experiment: SRE-luciferase reporter agonist assay in HEK293 cells transfected with NK3R; conditions: HEK293, SRE-Luc; relative to 1 µM s-SubP-NH2; MTL coexpressed 24 hours, peptides 4 hours
T5 sequence (P29371 1-465): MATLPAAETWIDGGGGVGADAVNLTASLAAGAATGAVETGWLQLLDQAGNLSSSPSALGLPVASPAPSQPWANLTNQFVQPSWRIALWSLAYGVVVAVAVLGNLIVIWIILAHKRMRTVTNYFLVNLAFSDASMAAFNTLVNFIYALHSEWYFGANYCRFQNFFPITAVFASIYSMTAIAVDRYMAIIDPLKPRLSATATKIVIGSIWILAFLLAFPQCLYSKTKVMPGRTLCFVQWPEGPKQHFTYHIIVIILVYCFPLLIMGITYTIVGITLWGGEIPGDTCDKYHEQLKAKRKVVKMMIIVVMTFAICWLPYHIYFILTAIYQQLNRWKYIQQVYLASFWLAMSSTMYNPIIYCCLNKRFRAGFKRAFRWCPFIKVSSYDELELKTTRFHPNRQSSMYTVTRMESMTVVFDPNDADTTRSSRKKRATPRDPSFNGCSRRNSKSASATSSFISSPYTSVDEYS
Protocol: as §1, §4, §3

T3 sequence (P25103 whole entry): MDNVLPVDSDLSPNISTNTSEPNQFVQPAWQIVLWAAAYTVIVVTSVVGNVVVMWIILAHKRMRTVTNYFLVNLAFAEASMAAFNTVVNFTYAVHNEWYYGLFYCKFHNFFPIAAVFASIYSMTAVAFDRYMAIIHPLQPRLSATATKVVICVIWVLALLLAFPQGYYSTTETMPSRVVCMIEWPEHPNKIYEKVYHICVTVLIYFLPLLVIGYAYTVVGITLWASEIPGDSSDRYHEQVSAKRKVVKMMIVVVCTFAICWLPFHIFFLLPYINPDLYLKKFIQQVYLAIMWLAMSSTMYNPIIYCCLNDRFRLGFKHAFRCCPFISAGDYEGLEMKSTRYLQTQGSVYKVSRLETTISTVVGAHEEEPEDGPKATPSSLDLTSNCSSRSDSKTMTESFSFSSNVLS

Compound: Cc1cccc(NC(=O)N[C@@H]2N=C(c3ccccc3)c3ccccc3N(CC(=O)c3ccccc3C)C2=O)c1 [YM022, (R)-1-[2,3-dihydro-1-(2′-methylphenacyl)-2-oxo-5-phenyl-1H-1,4-benzodiazepin-3-yl]-3-(3-methylphenyl)urea]
pIC50 (CCK2R [1]; agonist 10 µM l-CCK4-Gly-COOH, 4 hours, read-out: IC50 for inhibition of l-CCK4-Gly-COOH induced CCK2R signaling): 7.99
pIC50 (CCK2R [1]; agonist 10 µM s-CCK4-Gly-COOH, 4 hours, read-out: IC50 for inhibition of s-CCK4-Gly-COOH induced CCK2R signaling): 9.08
pIC50 (CCK2R [1]; agonist tCCK4-Gly (coexpressed MTL), antagonist added 4 hours after transfection for 20 hours, read-out: IC50 for inhibition of tCCK4-Gly induced CCK2R signaling): 9.27

pEC50 (CCK2R [2]): < 6.00
CCK2R mediated signaling (agonist activity, in words) (CCK2R [2]): activated
CCK1R mediated signaling (agonist activity, in words) (CCK1R): lacked activity
Compound: CCCCCCCCCCCCCCCC(=O)NCCOCCOCCOCCOCCOCCOCCOCCOCCC(=O)NCC(=O)NCC(=O)N[C@@H](Cc1c[nH]c2ccccc12)C(=O)N[C@@H](CCSC)C(=O)N[C@@H](CC(=O)O)C(=O)N[C@@H](Cc1ccccc1)C(=O)NCC(=O)O [l-CCK4-Gly-COOH] ({Palmitoyl-PEG8}-GGWMDFG-OH)

pEC50 (CCK2R [2]): 8.59
CCK2R mediated signaling (agonist activity, in words) (CCK2R [2]): does not fully activate
Compound: CCCCCCCCCCCCCCCC(=O)NCCOCCOCCOCCOCCOCCOCCOCCOCCC(=O)NCC(=O)NCC(=O)N[C@@H](Cc1c[nH]c2ccccc12)C(=O)N[C@@H](CCSC)C(=O)N[C@@H](CC(=O)O)C(=O)N[C@@H](Cc1ccccc1)C(N)=O [l-CCK4-NH2] ({Palmitoyl-PEG8}-GGWMDF-NH2)

pEC50 (NK1R [3]): 8.21
NK1R mediated signaling (agonist activity, in words) (NK1R [4]; HEK293, SRE-Luc, relative to 1 µM s-SubP-NH2, MTL coexpressed 24 hours, peptides 4 hours): activated
NK2R mediated signaling (agonist activity, in words) (NK2R): no signaling was observed
NK3R mediated signaling (agonist activity, in words) (NK3R): activated
Compound: CCCCCCCCCCCCCCCC(=O)NCCOCCOCCOCCOCCOCCOCCOCCOCCC(=O)NCCCC[C@H](NC(C)=O)C(=O)NCC(=O)NCC(=O)N[C@@H](CCCNC(=N)N)C(=O)N1CCC[C@H]1C(=O)N[C@@H](CCCCN)C(=O)N1CCC[C@H]1C(=O)N[C@@H](CCC(N)=O)C(=O)N[C@@H](CCC(N)=O)C(=O)N[C@@H](Cc1ccccc1)C(=O)N[C@@H](Cc1ccccc1)C(=O)NCC(=O)N[C@@H](CC(C)C)C(=O)N[C@@H](CCSC)C(=O)O [l-SubP-COOH]

Compound: CCCCCCCCCCCCCCCC(=O)NCCOCCOCCOCCOCCOCCOCCOCCOCCC(=O)NCCCC[C@H](Nc1ccc([N+](=O)[O-])c2nonc12)C(=O)NCC(=O)NCC(=O)N[C@@H](CCCNC(=N)N)C(=O)N1CCC[C@H]1C(=O)N[C@@H](CCCCN)C(=O)N1CCC[C@H]1C(=O)N[C@@H](CCC(N)=O)C(=O)N[C@@H](CCC(N)=O)C(=O)N[C@@H](Cc1ccccc1)C(=O)N[C@@H](Cc1ccccc1)C(=O)NCC(=O)N[C@@H](CC(C)C)C(=O)N[C@@H](CCSC)C(N)=O [l-SubP-NH2]
pEC50 (NK1R [3]): 9.40
NK1R mediated signaling (agonist activity, in words) (NK1R [4]): fully active
Potency at NK1R compared with soluble counterpart (in words) (NK1R [4]): more potent than s-SubP-NH2

pEC50 (CCK2R [2]): < 6.00
Compound: WMDFG [s-CCK4-Gly-COOH]
